Measurements published in publication PMC9718779, “Discrete LAT condensates encode antigen information from single pMHC:TCR binding events” (Nature Communications, 2022).

System: LAT condensation in primary mouse T cells
Assay: Ligand potency for LAT condensation (cumulative distinct LAT condensates per cell)
Assay type: cell-based
Source text: Single-molecule TIRF images are taken at the same power dosage (power*exposure) , either by high laser illumination intensity (8 mW) and short exposure time (25 ms) or by low laser illumination intensity (0.4 mW) and long exposure time (500 ms). Single-molecule TIRF images of long exposure time (500 ms) were collected every 2 to 4 s to localize single pMHC-TCR using a laser illumination intensity of 0.4 mW. LAT-eGFP was monitored at 0.4 mW every 2 to 4 s. When cells were imaged to measure LAT condensation only, the cells were imaged as they landed, or within 60 s of landing, for a duration of 300 s. Cells imaged for NFAT-mCherry was done by epifluorescence using 150-ms exposure time every 50 s at 3 and 6 μm above the coverslip to monitor NFAT dynamics. NFAT monitoring continued for 30 min unless otherwise stated.
LAT condensates were initially tracked with TrackMate’s automated workflows and then each track was manually adjusted for proper linking/detection. A pMHC binding event was considered productive if there existed a LAT condensate trajectory whose first frame of detection could be found within 250 nm of the binding event.
Data presented in Fig. 5 originated from T cells that were exposed to supported membranes containing 600 molecules μm^−2 of ICAM-1 and 0.5 molecules μm^−2 pMHC after loading MHC with one of the peptides from the panel. […]

Sequence: ANERAELIAYLTQAAEK [T102E, null altered peptide]
- rank of productivity in LAT condensate number (MCC, T102S, ER60, T102E, cumulative time-series Fig. 5b): least
- LAT signal of null pMHC + ICAM-1 condition (versus ICAM-1 only): did not produce any LAT signal over background levels
